# Tests used:
# [1] = biological target: T1, soluble guanylate cyclase (sGC) (Rattus norvegicus, UniProt P20595); test: Activating action at the sGC enzyme in vitro (PPi detection, luciferase); format: biochemical
# T1 construct: made in house; host or cells: baculovirus/Sf9 insect cells
# T1 sequence (P20595 1-619): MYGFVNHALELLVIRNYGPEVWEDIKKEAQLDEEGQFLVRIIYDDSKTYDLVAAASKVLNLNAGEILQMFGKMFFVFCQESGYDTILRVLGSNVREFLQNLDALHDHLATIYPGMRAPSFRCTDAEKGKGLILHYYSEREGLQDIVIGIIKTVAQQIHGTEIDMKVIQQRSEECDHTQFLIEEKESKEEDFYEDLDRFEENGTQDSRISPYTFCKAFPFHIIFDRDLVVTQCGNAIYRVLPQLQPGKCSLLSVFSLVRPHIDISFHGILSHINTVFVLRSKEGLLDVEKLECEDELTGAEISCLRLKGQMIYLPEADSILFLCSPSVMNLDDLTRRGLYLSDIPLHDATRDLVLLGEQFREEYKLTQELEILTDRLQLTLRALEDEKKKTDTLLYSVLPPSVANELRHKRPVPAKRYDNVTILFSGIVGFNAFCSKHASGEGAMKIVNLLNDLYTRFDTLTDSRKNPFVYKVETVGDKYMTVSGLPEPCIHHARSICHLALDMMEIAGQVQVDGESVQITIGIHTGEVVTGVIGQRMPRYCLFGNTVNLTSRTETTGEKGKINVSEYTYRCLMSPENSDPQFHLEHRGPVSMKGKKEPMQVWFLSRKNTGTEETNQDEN
# T1 sequence (P19686 1-690 partner): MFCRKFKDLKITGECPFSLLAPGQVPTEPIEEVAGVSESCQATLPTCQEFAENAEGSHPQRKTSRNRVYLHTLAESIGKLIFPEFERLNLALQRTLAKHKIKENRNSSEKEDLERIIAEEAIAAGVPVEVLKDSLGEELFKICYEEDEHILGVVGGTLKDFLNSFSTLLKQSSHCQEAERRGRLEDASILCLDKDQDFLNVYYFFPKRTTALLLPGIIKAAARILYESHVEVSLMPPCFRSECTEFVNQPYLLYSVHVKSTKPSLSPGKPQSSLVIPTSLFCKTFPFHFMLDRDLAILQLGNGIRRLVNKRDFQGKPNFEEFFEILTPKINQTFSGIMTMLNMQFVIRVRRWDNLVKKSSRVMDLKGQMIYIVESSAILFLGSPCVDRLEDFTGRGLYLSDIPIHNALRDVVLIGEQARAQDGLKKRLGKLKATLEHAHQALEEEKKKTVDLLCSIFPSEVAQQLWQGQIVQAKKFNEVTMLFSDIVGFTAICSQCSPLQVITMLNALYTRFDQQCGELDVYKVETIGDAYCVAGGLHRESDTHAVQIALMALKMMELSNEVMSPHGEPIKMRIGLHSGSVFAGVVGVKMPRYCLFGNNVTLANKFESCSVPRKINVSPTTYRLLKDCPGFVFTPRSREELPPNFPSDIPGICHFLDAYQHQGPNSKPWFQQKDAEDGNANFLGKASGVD
# Method in brief: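 Rat sGC (0–10 nM) preincubated 10 min at room temperature with compound in TEA buffer, pH 7.5; reaction started with GTP (1.25 mM solution). PPi formed read continuously by luciferase luminescence; stimulation expressed relative to unstimulated enzyme. Heme-free enzyme tested after 30 min with 25 μM ODQ.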
# [2] = biological target: T2, recombinant guanylate cyclase reporter cell line (Rattus norvegicus, UniProt P20595); test: sGC-activating activity in the CHO reporter cell in vitro; format: cell-based
# T2 construct: expressed in transfected cells; host or cells: CHO reporter cell line
# T2 sequence (P20595 1-619): T1 sequence (P20595 1-619)
# T2 sequence (P19686 1-690 partner): T1 sequence (P19686 1-690 partner)
# Description: The cellular action of the compounds according to the invention is determined at a recombinant guanylate cyclase reporter cell line, as described in F. Wunder et al., Anal. Biochem. 339, 104-112 (2005).
# [3] = biological target: T3, Heme-free sGC (recombinant soluble guanylate cyclase) (Rattus norvegicus, UniProt P20595); test: Stimulation of recombinant soluble guanylate cyclase (sGC) in vitro, heme-free enzyme; format: biochemical
# T3 construct: made in house; host or cells: baculovirus/Sf9 insect cells
# T3 sequence (P20595 1-619): T1 sequence (P20595 1-619)
# T3 sequence (P19686 1-690 partner): T1 sequence (P19686 1-690 partner)
# Description: Investigations on the stimulation of recombinant soluble guanylate cyclase (sGC) by the compounds according to the invention with and without sodium nitroprusside, and with and without the heme-dependent sGC inhibitor 1H-1,2,4-oxadiazolo-(4,3a)-quinoxalin-1-one (ODQ) are carried out by the method described in detail in the following reference: M. Hoenicka, E. M. Becker, H. Apeler, T. Sirichoke, H. Schroeder, R. Gerzer and J.-P. Stasch, “Purified soluble guanylyl cyclase expressed in a baculovirus/Sf9 system: Stimulation by YC-1, nitric oxide, and carbon oxide”, J. Mol. Med. 77 (1999), 14-23. The heme-free guanylate cyclase is obtained by adding Tween 20 to the sample buffer (0.5% in the final concentration).
# The activation of sGC by a test substance is reported as n-fold stimulation of the basal activity.
structure (smiles),measurement,setting,value
"O=C(O)CCc1cccc(NC(=O)C(c2ccc(CN3N=C(c4ccccc4)OCC3=O)cc2)C2CCCC2)c1 (single isomer, unassigned) [Example 103, 3-{3-[(Cyclopentyl{4-[(5-oxo-2-phenyl-5,6-dihydro-4H-1,3,4-oxadiazin-4-yl)methyl]phenyl}acetyl)amino]phenyl}propanoic acid]","MEC (minimum effective concentration), activating action at the sGC enzyme",[1],20 nM
same,EC50,"[1]; read-out: EC50 (concentration at 50% of maximum efficacy), activating action at the sGC enzyme",0.381 µM
same,"MEC (minimum effective concentration), sGC-activating activity in the CHO reporter cell",[2],10 nM
same,"Stimulation (n-fold) of heme-free sGC, basal",[3]; 0.1 μM Example 103,1.1 n-fold
same,"Stimulation (n-fold) of heme-free sGC, basal",[3]; 1 μM Example 103,2.4 n-fold
same,"Stimulation (n-fold) of heme-free sGC, basal",[3]; 10 μM Example 103,13.9 n-fold
same,"Stimulation (n-fold) of heme-free sGC, basal",[3]; 100 μM Example 103,56.1 n-fold

# Source: patent US8987256B2, “Oxo-heterocyclic substituted carboxylic acid derivatives and the use thereof” (Bayer Intellectual Property GmbH, priority 2008, dated 2015)
